From patent US20070258889A1, “NOVEL NANOPARTICLES AND USE THEREOF” (Montana State University, priority 2005, published 2007)
In brackets after ≈: the same amount, converted by molar mass.

Key:
[1] = Singlet oxygen production assay (TEMP to TEMPO, EPR); conditions: 20 μM reactive dye, 50 mM TEMP, DPBS pH 7.4; free dye
Description: In order to analyze the singlet O2 production by protein RuIphen composite, the conversion of TEMP to TEMPO by singlet O2 was monitored by EPR. Briefly, the light induced production of singlet O2 assay was conducted in a serum vial open to the air with vigorous stirring. The reaction was conducted in 50 mM TEMP with DPBS at pH 7.4. The each of the reactions were normalized to 20 μM reactive dye (RuIphen or Rose Bengal). At each time point, 100 μL of the solution was removed and added to 10 μL of 1M sodium azide to quench the singlet O2 production. Hsp G41CRu was labeled with two different loadings of RuIphen 51% and 82%. […] In order to probe the loss of EPR signal in the free Ru^∥bpy3 control, free Ru^∥bpy3 was illuminated in the presence of purchased TEMPO both in the presence and absence of molecular O2.
Singlet Oxygen Production Assay. In a 3 mL clear glass serum vial (Wheaton), 20 µM ruthenium (either free or attached to protein cage) and 50 mM 2,2,6,6-tetramethyl-4-piperidone (TEMP) final concentration was added to DPBS pH 7.4. […] For the oxygen-free reaction, the serum vials are sealed and degassed under nitrogen The light was quantitated using an Extech Instrument EasyView light meter to be 511, 700 I×. […]

Solubility (saturation) = format: physicochemical; conditions: with 1% DMF, aqueous buffer, room temperature, solutions in which the protein cages are stable
[2] = room temperature; cited from earlier work
tumor angiogenesis = conditions: mice; cited from earlier work
tumor cells = conditions: cited from earlier work
tumor lung colonization = conditions: mouse, in vivo; cited from earlier work
platlets and neutrophils = conditions: cited from earlier work

O=C([O-])c1c(Cl)c(Cl)c(Cl)c(Cl)c1-c1c2cc(I)c(=O)c(I)c-2oc2c(I)c([O-])c(I)cc12.[Na+].[Na+] [Rose Bengal]
increase in the amount of TEMPO generated [1]: 4 fold

COc1cccc2c1C(=O)c1c(O)c3c(c(O)c1C2=O)C[C@@](O)(C(=O)CO)C[C@@H]3O[C@H]1C[C@H](N)[C@H](O)[C@H](C)O1 [doxorubicin]
solubility (Solubility (saturation)): ~2 µM (≈ 1.09 µg/mL)

O=C1OC2(c3ccc(O)cc3Oc3cc(O)ccc32)c2ccccc21 [fluorescein]
solubility (Solubility (saturation)): ~2 µM (≈ 0.665 µg/mL)

CC(=O)Oc1ccccc1C(=O)O [acetylsalicylic acid]
solubility (saturation) [2]: ~18500 µM (≈ 3330 µg/mL)

CDPGYIGSRC [peptide 11]
tumor angiogenesis (tumor angiogenesis): inhibits tumor angiogenesis in mice
invasion of basement membranes by tumor cells (tumor cells): effectively blocks invasion of basement membranes by tumor cells
experimental tumor lung colonization (tumor lung colonization): reduces experimental tumor lung colonization
toxic effect on platelets and neutrophils (platlets and neutrophils): no toxic effect on these cells
